Results as given in patent publication US20170150719A1, “FUNGICIDAL PYRAZOLES AND THEIR MIXTURES” (E I DU PONT DE NEMOURS AND COMPANY, priority 2010, published 2017).
Like-named read-outs stand apart in the source and are kept apart here.

System: Septoria tritici
Assay: Tests N1 and N2: growth inhibition of Septoria tritici on solid medium in 96-well plates, absorbance at 600 nm, observed and Colby expected
Format: cell-based
Details: Zymoseptoria tritici; for inhibition at 0.00032 µM: Compound 81 alone 0.00032 μM; for inhibition at 0.0016 µM: Compound 81 alone 0.0016 μM; for inhibition at 0.008 µM: Compound 81 alone 0.008 μM; for inhibition at 0.04 µM: Compound 81 alone 0.04 μM; for inhibition at 0.2 µM: Compound 81 alone 0.2 μM
Description: Tests N1 and N2 involved evaluation of mixtures of Compound 81 with 2-[(3-bromo-8-methyl-6-quinolinyl)oxy]-N-(1,1-dimethyl-2-propyn-1-yl)-2-(methylthio)acetamide (Compound A1) and 2-[(3-bromo-6-quinolinyl)oxy]-N-(1,1-dimethylethyl)butanamide (Compound A2), respectively, for inhibiting the growth of Septoria tritici (the causal agent of wheat leaf blotch). The general protocol for preparing test compositions was as follows. Compound 81 (Tests N1 and N2), Compound A1 (Test N1) and Compound A2 (Test N2) were obtained as unformulated, technical-grade materials. Unformulated test compounds were first dissolved in DMSO at the appropriate concentration to provide the desired concentration (in μM) after mixing with the fungal growth medium in the wells of 96-well plates containing 200 μL fungal growth medium per well. The ranges of compound concentrations were chosen to span a range of inhibitory activity from 0 to near 100% to identify any synergistic action when Septoria tritici was treated with compounds added in combination. The DMSO solutions of the test compounds were added to the wells prior to addition of the fungal growth medium.
The fungal growth solid medium was prepared by forming an aqueous mixture containing dipotassium hydrogen phosphate (3.0 g/L), potassium dihydrogen phosphate (4.0 g/L), sodium chloride (0.5 g/L), ammonium chloride (1.0 g/L), magnesium sulfate heptahydrate ([…]) and calcium chloride dihydrate (0.01 g/L), also containing 1 mL/L of a trace element solution (manganese sulfate hydrate (0.1 mg/mL), zinc sulfate heptahydrate (0.2 mg/mL), copper(II) sulfate pentahydrate (0.2 mg/mL), iron(II) sulfate heptahydrate (0.2 mg/mL), sodium molybdate dihydrate (0.1 mg/mL), cobalt(II) sulfate heptahydrate (0.06 mg/mL), boric acid (0.08 mg/mL)), and supplemented with 50 μL/L of a biotin stock solution (0.1 mg/mL). The pH was adjusted to 6.8 with aqueous 1 M sodium carbonate solution. The mixture was further supplemented with 1 g/L of yeast extract, and GELRITE gellan gum (Kelco) (4 g/L) was added. Sufficient water was added to bring the volume to 90% of final volume (e.g., 900 mL volume for preparation of 1 L of fungal growth medium). The mixture was autoclaved. On cooling to 60° C., 100 mL/L of aqueous dextrose solution (10 g/L), 500 μL/L of aqueous ampicillin solution (100 mg/mL) and 500 μL/L of rifampicin solution (10 mg/mL in DMSO) were added to provide the final volume of fungal growth medium, which was then dispensed while still warm using a microliter pipette to the wells of the 96-well plates. The dispensed fungal growth medium in each well was agitated using the tip of the dispensing pipette to mix it with the DMSO solution containing the test compounds.
After the fungal growth medium in the wells had cooled to room temperature and solidified, the top surface of the growth medium in each well was inoculated with 20 μL of a suspension of fungus containing 8×10^4 cells. Following a 2 h period of drying in a sterile hood, plates were placed in a dark incubator at 25° C. for 5 d.
Fungal growth was assessed on a plate reader set to measure absorbance of 600 nm light. The percent growth inhibition observed (Obsd.) in Tests N1 and N2, as well as the percent growth inhibition expected (Exp.) from calculation using the Colby equation, are listed in Tables L and M, respectively.

[1] = read-out: % inhibition Obsd. (Test N1)
[2] = read-out: % inhibition Obsd. (Test N2)

Q: `Cc1nn(C)c(Nc2c(F)cc(Cl)cc2F)c1-c1ccc(F)cc1Cl` [Compound 81, N-(4-chloro-2,6-difluorophenyl)-4-(2-chloro-4-fluorophenyl)-1,3-dimethyl-1H-pyrazole-5-amine] was tested. Which inhibition at 0.00032 µM [1] did it give?
A: Its inhibition at 0.00032 µM is 9%.

Q: And the inhibition at 0.00032 µM [2]?
A: Its inhibition at 0.00032 µM is 0%.

Q: And the inhibition at 0.0016 µM [1]?
A: The inhibition at 0.0016 µM was 5%.

Q: What about the inhibition at 0.0016 µM [2] of the same molecule?
A: The inhibition at 0.0016 µM was 0%.

Q: And the inhibition at 0.008 µM [1]?
A: Its inhibition at 0.008 µM is 10%.

Q: What about the inhibition at 0.008 µM [2] of the same molecule?
A: Its inhibition at 0.008 µM is 29%.

Q: What about the inhibition at 0.04 µM [1] of the same molecule?
A: Its inhibition at 0.04 µM is 93.5%.

Q: What about the inhibition at 0.04 µM [2] of the same molecule?
A: Its inhibition at 0.04 µM is 93.5%.

Q: And the inhibition at 0.2 µM [1]?
A: The inhibition at 0.2 µM was 98%.

Q: What about the inhibition at 0.2 µM [2] of the same molecule?
A: The inhibition at 0.2 µM was 96%.
